Measurements taken from ChEMBL document CHEMBL5678816, “A Next-Generation TRK Kinase Inhibitor Overcomes Acquired Resistance to Prior TRK Kinase Inhibition in Patients with TRK Fusion-Positive Solid Tumors” (Cancer Discov, 2017).
Calls of active or inactive are those of the source. The calls are words filed in the database; no cut-off is given here.

Assays:
[1] = target: Focal adhesion kinase 1 (Homo sapiens) (UniProt Q05397); test: Inhibition of FAK (unknown origin) at 1 uM in presence of ATP relative to control; values are per cent of control
Sequence of Focal adhesion kinase 1 (Homo sapiens) (Q05397 2-1052 limits assumed): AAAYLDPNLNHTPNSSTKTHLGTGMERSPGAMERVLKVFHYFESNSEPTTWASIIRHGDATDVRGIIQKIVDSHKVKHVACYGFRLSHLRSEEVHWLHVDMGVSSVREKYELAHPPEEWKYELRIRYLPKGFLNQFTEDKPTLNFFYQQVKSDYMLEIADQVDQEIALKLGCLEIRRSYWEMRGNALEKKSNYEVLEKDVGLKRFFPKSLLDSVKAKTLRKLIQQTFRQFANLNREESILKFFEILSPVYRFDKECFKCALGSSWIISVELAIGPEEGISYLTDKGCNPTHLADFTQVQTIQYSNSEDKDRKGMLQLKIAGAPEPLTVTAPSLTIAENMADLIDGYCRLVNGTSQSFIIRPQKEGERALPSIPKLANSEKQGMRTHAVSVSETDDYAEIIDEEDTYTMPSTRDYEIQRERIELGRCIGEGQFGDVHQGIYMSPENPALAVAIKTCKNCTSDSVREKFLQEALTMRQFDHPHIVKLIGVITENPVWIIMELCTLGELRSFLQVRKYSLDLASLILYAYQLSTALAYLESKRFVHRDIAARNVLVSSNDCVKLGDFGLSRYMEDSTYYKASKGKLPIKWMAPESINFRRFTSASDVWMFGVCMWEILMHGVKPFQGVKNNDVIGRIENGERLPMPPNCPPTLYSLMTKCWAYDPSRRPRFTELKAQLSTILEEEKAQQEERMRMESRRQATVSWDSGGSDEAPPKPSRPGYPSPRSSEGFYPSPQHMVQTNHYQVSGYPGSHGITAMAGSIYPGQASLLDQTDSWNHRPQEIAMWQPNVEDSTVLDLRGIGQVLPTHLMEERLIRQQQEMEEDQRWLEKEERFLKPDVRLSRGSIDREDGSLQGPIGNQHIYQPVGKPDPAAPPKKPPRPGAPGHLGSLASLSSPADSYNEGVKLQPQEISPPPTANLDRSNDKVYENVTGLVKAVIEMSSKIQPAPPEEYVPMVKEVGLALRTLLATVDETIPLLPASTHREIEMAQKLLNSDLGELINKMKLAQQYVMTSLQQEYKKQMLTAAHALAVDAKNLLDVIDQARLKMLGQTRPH

NCI-H441 = test: Inhibition of cell proliferation in human NCI-H441 cells upto 10 umol/L incubated for 72 hrs by DAPI staining based analysis; format: functional; conditions: dose <= 10.0 µmol/L

SMILES: C[C@@H]1CCc2ncc(F)cc2[C@H]2CCCN2c2ccn3ncc(c3n2)C(=O)N1 [SELITRECTINIB]
- residual activity [1]: 81%
- inhibition (NCI-H441): inactive
